Assays:
[1] = target: T1, human cystic fibrosis conductance transmembrane regulator (CFTR) (Homo sapiens, UniProt P13569); assay: Effect upon CFTR chloride ion channel activity (YFP fluorescence quenching by iodide influx in FRT cells); assay type: cell-based; settings: for Emax at 30 µM: FRT, 10 min, final concentration of 30 μM, reaction for 10 minutes, ratio based on the CFTR activity maximized by forskolin
T1 construct: expressed in transfected cells; host or cells: FRT cells (Fischer rat thyroid epithelial cells)
T1 sequence (P13569 whole entry): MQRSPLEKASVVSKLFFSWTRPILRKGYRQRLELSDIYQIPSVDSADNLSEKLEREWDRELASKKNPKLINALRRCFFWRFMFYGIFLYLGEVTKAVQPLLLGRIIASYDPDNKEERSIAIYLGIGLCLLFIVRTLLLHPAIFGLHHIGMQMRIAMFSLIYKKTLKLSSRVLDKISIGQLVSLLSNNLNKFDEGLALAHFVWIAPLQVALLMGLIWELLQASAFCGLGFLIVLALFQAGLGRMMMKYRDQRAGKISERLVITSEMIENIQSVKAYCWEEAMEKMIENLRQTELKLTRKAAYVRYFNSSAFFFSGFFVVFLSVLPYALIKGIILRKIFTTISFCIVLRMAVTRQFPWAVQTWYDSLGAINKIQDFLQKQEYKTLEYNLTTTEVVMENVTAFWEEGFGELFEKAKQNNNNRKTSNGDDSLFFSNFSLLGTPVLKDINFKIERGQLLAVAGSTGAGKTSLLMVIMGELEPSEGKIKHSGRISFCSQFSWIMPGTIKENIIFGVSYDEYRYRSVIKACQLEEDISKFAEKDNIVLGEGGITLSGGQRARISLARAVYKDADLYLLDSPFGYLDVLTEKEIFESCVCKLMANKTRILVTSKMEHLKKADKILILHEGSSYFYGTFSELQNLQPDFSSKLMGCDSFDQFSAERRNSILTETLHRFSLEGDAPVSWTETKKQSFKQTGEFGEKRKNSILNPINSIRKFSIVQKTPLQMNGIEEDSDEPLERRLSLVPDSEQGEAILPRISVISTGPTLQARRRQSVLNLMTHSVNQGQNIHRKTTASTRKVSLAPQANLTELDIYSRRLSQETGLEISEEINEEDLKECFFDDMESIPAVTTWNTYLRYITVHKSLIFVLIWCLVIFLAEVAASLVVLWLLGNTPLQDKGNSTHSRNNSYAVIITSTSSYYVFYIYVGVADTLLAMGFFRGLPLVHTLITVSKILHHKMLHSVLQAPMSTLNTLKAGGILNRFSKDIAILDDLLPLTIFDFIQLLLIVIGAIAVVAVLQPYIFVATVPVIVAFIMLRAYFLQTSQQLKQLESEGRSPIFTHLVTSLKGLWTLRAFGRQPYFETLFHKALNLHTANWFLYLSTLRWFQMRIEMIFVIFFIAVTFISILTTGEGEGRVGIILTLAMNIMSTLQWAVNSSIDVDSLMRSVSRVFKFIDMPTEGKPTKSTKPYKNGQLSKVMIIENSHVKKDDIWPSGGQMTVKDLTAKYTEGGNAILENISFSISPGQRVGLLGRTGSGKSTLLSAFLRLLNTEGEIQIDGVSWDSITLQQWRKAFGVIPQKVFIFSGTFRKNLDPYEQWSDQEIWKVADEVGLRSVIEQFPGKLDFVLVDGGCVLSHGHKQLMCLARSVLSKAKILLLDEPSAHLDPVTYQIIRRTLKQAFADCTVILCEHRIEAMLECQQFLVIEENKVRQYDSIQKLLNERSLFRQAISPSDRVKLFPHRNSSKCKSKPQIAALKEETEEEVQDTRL
Procedure: FRT cells expressing […] specific to human cystic fibrosis conductance transmembrane regulator (CFTR) and iodide ions are cultured in the Coon's modified F-12 culture medium for 48 hours on a 96-well plate. Each well of the plate containing the cultured cells is washed three times with 200 μl of PBS buffer, and then 100 μl of PBS buffer is added to each well. The indolizino[3,2-c]quinoline derivative according to each Example is introduced to each well to a final concentration of 30 μM, followed by reaction for 10 minutes. After the completion of the reaction, the 96-well is mounted to a FLUOstar Omega microplate reader (BMG LABTECH) and 100 μl of NaI solution is added to each well. Then, YFP fluorescence reduced by the iodide ions introduced to the cells through CFTR is recorded at an interval of 0.4 seconds for 24 seconds in total, thereby evaluating the effect of each compound upon CFTR activity.
The effect of each indolizino[3,2-c]quinoline derivative upon CFTR chloride ion channel activity is calculated as an activity ratio based on the CFTR activity maximized by a well-known CFTR agonist, forskolin.

[2] = test system: Adipose-derived stem cells (ASC); assay: Proliferation/viability MTT assay, adipose-derived stem cells; assay type: cell-based; settings: 0.1-100 μM, 24 and 48 hours, FIG. 2
Procedure: (§1) Adipose-derived stem cells (ASC) and melanoma cells (B16 melanoma cells) are cultured in high-glucose Dulbecco's modified Eagle's medium (DMEM) with 10% fetal bovine serum (FBS) introduced thereto. Each type of cells is cultured in an incubator under the conditions of 37° C. and 5% CO2.
(§2) Cell survivability and cytotoxicity are determined in a 96-well plate by MTT assay. Each type of cells is implanted into a 6-well plate in a number of 3×10^4/well (ASC) and 4×10^4/well and cultured for 24 hours. Then, media change into high-glucose DMEM is carried out for both ASC and B16 and cultured overnight. After starvation, the cells are treated with each of the compounds according to Examples at a different concentration (0.1, 1, 10, 50, 100 μM), and further incubated for 24 hours and 48 hours under the conditions of 37° C. and 5% CO2. Then, MTT solution (5 mg/ml in PBS) is added to each well in an amount corresponding to 1/20 of the media volume, and incubation is carried out at 37° C. for 2 hours so that the cells are colored. After that, the supernatant is removed and dimethyl sulfoxide is added to carry out discoloration. The solution is determined by using an enzyme-linked immunosorbent assay (ELISA) reader at a wavelength of 595 nm.

[3] = test system: Adipose-derived stem cells (ASC) and melanoma cells (B16 melanoma cells); assay: Cytotoxicity by MTT assay; assay type: cell-based; settings: at a high concentration of 100 μM, FIG. 3 and FIG. 4
Procedure: as §1, §2

[4] = test system: Adipose-derived stem cells; assay: Migration assay (mechanical wound, Incucyte zoom); assay type: cell-based; settings: 0.1, 1, 10, 50 μM, 24 and 48 hours; FIG. 5 and FIG. 6
Procedure: Adipose-derived stem cells are implanted into a 96-well plate in a number of 3×10^4/well and cultured for 24 hours. Then, media change into high-glucose DMEM is carried out and the cells are cultured overnight. After starvation, a mechanical wound is made and the cells are treated with each of the compounds according to Examples at a different concentration (0.1, 1, 10, 50 μM). Next, the cells are incubated for 24 hours and 48 hours under the conditions of 37° C. and 5% CO2. Then, the Incucyte zoom (Essen Bioscience, USA) is photographed from the time point of treatment with each compound at an interval of 1 hour to analyze the migration of ASC.

SMILES	Emax at 30 µM [1] [%]	proliferation of adipose-derived stem cells [2]	cytotoxicity [3]	migration ability of adipose-derived stem cells [4]	melting point [°C]	CFTR activity ratio, result in words ([1]; 30 μM, comment on Table 2)
c1ccc2c(-c3nc4ccccc4c4cc5ccccn5c34)cccc2c1 [Example 12, 6-(Naphthalen-1-yl)indolizino[3,2-c]quinoline]	44	highly effective	no toxicity	has migration ability	205.6 to 206.3	–
c1ccc(-c2nc3ccccc3c3cc4ccccn4c23)nc1 [Example 14, 6-(Pyridin-2-yl)indolizino[3,2-c]quinoline]	82	highly effective	–	–	177.9 to 178.3	high activity ratio
Brc1ccc2cc3c4ccccc4nc(-c4cccc5ccccc45)c3n2c1 [Example 27, 9-Bromo-6-(4naphthalen-1-yl)indolizino[3,2-c]quinoline]	–	highly effective	no toxicity	has migration ability	212 to 212.7	–
Cc1cccn2c1cc1c3ccccc3nc(-c3ccco3)c12 [Example 23, 6-(Furan-2-yl)-11-methylindolizino[3,2-c]quinoline]	–	highly effective	–	–	112.4 to 113.2	–

— US9296751B1, “Indolizino[3,2-c]quinoline derivatives, pharmaceutically acceptable salt thereof, preparation method thereof and pharmaceutical composition for treatment of cystic fibrosis containing the same as active ingredient” (INDUSTRY-ACADEMIC COOPERATION FOUNDATION, YONSEI UNIVERSITY, priority 2014, dated 2016)
